Results on 28 molecules are retold here after ChEMBL document CHEMBL1201862, “PubChem BioAssay data set” (2004).

A short description of assay [1]: A cytotoxicity screen of small molecule inhibitors of the PhoP region in Salmonella typhi identified in the primary screen. [Related pubchem assays: 1850, 1864, 1985 ]. It counts as functional.
The target in assay [2] is Eukaryotic translation initiation factor 4E (Mus musculus, UniProt P63073). Description: eIF4E–eIF4G protein interaction inhibitors, dose response, biochemical, TR-FRET (AID 855).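 Note: potency for disrupting eIF4E binding to eIF4GI seen as loss of FRET.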 It counts as functional. Background: TR-FRET usually uses a lanthanide donor and a delayed reading to cut background.
Chain of Eukaryotic translation initiation factor 4E (P63073 whole entry): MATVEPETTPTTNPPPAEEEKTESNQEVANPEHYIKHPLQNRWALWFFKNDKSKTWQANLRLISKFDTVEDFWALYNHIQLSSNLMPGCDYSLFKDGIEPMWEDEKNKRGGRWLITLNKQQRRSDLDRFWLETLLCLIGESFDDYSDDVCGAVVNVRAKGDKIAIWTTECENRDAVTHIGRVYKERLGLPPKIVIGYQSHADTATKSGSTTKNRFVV
The target of assay [3] is Peroxisome proliferator-activated receptor gamma/Nuclear receptor coactivator 1 (Homo sapiens, UniProt P37231). It counts as functional.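 Note: agonist potency as compounds enhance coactivator SRC-1 recruitment to PPARgamma.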
Chain of Peroxisome proliferator-activated receptor gamma/Nuclear receptor coactivator 1 (P37231 whole entry): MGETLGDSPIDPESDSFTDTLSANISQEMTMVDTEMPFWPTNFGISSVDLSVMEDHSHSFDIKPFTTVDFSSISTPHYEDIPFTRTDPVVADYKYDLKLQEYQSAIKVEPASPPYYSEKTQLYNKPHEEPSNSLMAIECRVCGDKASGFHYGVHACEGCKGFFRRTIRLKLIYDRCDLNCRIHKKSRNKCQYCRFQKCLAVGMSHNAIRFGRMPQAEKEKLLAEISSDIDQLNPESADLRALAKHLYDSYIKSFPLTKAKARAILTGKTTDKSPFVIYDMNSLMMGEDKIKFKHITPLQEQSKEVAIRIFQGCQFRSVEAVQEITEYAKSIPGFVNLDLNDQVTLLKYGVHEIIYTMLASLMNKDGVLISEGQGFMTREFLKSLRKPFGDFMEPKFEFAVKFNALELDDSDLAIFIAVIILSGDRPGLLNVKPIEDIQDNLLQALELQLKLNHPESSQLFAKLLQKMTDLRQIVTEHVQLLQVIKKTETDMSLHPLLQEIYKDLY
Chain of Peroxisome proliferator-activated receptor gamma/Nuclear receptor coactivator 1 (Q15788 whole entry, further chain): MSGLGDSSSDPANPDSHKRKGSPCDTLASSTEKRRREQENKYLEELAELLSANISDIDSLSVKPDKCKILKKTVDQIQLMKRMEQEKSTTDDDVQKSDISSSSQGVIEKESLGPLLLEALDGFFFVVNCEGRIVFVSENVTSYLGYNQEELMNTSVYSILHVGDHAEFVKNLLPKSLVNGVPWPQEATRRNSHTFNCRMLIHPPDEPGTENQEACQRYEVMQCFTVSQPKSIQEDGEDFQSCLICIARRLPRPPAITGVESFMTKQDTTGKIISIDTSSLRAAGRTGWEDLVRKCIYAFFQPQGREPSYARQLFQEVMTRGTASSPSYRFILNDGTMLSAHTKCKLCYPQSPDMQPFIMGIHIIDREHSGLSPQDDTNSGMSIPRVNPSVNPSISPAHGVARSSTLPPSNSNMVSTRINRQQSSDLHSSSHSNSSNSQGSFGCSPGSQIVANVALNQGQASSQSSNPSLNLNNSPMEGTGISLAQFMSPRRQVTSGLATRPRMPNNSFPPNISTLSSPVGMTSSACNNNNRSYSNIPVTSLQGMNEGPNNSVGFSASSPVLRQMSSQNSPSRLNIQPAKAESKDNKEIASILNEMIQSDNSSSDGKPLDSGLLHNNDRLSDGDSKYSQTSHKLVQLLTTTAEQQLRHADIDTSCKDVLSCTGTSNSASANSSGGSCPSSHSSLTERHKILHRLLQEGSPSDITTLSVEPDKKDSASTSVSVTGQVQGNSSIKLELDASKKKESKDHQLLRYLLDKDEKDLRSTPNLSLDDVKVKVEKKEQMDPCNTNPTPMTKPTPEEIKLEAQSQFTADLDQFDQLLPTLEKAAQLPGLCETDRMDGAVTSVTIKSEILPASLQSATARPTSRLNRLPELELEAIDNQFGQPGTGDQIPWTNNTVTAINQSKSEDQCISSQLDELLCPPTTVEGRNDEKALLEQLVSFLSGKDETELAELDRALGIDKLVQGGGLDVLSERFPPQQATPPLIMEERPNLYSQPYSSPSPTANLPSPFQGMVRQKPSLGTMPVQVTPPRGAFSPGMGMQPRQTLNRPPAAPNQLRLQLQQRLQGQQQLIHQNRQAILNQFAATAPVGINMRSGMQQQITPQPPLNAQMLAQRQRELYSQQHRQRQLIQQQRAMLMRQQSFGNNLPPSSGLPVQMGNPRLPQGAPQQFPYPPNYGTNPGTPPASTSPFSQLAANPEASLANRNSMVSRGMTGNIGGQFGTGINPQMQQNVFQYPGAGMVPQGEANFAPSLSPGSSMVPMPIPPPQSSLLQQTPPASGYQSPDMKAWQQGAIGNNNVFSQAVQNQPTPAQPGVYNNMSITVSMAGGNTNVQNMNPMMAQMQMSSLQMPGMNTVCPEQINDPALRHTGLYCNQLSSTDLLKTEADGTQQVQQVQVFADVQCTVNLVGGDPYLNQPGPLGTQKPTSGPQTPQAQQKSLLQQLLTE
Assay [4] addresses Cytochrome P450 3A4 (Homo sapiens, UniProt P08684).
Assay [5] deals with T1, Cytochrome P450 1A2 (Homo sapiens, UniProt P05177).
T1 sequence (P05177 whole entry): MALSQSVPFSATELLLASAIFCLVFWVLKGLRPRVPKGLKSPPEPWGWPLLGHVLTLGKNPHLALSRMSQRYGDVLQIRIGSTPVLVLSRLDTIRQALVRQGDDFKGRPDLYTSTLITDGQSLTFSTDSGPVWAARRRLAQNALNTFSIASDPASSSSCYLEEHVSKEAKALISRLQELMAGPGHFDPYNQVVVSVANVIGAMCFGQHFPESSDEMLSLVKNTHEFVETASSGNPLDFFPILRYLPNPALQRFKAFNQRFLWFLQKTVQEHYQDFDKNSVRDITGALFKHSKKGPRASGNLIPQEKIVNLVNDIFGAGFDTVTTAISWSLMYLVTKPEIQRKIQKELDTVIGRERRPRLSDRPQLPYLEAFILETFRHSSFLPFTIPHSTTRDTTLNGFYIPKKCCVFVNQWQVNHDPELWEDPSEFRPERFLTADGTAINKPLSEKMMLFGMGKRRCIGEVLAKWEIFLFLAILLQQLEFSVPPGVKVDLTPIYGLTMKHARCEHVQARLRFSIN

Assay [6] deals with Cytochrome P450 2C19 (Homo sapiens, UniProt P33261). As to the kind of experiment: Cytochrome panel assay with activity outcomes. Panel member name: p450-cyp2c19 Compounds with AC50 equal or less than 10 uM are considered active. The following applies: read-out: AC50. It counts as functional.
The target in assay [7] is Peroxisome proliferator-activated receptor gamma/Nuclear receptor coactivator 3 (Homo sapiens, UniProt P37231). It counts as functional.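 Note: agonist potency for raising coactivator recruitment to the receptor.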
Chain of Peroxisome proliferator-activated receptor gamma/Nuclear receptor coactivator 3 (P37231 whole entry): as the sequence (P37231 whole entry) above
Chain of Peroxisome proliferator-activated receptor gamma/Nuclear receptor coactivator 3 (Q9Y6Q9 whole entry, further chain): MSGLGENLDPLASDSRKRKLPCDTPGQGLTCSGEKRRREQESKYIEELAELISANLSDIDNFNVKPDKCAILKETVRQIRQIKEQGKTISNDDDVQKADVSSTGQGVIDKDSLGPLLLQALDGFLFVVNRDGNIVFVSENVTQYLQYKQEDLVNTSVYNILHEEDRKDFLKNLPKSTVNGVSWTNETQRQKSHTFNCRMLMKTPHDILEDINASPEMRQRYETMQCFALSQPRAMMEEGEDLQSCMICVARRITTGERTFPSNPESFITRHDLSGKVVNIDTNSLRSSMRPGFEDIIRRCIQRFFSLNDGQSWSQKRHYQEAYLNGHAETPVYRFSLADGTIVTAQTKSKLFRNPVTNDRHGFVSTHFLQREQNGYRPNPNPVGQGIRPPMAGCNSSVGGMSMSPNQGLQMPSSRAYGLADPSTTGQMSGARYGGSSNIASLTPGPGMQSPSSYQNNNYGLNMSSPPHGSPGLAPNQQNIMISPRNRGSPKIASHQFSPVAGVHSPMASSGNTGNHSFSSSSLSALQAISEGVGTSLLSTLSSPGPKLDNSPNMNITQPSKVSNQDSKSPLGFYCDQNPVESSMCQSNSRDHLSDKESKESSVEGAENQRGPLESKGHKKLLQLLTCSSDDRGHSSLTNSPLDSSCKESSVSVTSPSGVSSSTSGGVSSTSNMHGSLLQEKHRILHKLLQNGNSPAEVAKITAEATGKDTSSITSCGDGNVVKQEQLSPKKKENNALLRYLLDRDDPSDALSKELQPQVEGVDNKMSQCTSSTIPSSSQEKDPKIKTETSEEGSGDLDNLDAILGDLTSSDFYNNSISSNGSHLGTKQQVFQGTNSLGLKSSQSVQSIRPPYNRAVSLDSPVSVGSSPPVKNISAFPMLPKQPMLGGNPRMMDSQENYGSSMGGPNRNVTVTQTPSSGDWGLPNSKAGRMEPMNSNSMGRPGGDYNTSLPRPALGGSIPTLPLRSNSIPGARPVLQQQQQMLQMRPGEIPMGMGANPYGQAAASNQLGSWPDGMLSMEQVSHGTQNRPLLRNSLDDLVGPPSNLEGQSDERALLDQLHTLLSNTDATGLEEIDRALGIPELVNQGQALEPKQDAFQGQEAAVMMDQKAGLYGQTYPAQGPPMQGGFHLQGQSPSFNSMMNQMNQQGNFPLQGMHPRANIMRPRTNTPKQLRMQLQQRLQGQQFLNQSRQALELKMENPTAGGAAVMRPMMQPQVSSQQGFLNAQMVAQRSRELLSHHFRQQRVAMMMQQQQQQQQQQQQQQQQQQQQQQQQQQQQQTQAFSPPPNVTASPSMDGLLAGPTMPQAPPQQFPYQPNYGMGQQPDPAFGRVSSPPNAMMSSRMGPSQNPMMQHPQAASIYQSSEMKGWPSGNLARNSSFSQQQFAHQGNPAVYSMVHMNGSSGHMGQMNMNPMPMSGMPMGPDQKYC
Assay [8] concerns the target Peroxisome proliferator-activated receptor gamma/Nuclear receptor coactivator 2 (Homo sapiens, UniProt P37231). It counts as functional.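 Note: agonist potency for raising coactivator recruitment to the receptor.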
Assay [9] has as its target T2, Endoribonuclease toxin MazF (Escherichia coli K-12, UniProt P0AE70).
T2 sequence (P0AE70 whole entry): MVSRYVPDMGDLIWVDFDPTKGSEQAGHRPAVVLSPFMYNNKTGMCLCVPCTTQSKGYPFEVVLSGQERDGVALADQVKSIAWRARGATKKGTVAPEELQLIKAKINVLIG
As to the kind of experiment: MazF toxin RNase activators, dose response, biochemical, fluorescence, single-stranded RNA substrate, uHTS hits (AID 588481). It counts as functional.

Assay [10] has as its target T2, Endoribonuclease toxin MazF. Description: fluorescent RNA oligo signal without MazF, dose response, counter-screen for MazEF activator project, biochemical, fluorescence, single-stranded RNase substrate (AID 588502). It counts as functional. A general note: The purpose of a counterscreen is to sort out artefacts and off-target activity.
For assay [11], the target named is T3, Polyadenylate-binding protein 1 (Homo sapiens, UniProt P11940). As to the kind of experiment: PABP1 MLLE–PAM2 binding inhibitor potency, dose response, biochemical, fluorescence polarization, FITC-PAM2 peptide (AID 602259). It counts as functional. The following applies: read-out: IC50_Mean.
T3 sequence (P11940 whole entry): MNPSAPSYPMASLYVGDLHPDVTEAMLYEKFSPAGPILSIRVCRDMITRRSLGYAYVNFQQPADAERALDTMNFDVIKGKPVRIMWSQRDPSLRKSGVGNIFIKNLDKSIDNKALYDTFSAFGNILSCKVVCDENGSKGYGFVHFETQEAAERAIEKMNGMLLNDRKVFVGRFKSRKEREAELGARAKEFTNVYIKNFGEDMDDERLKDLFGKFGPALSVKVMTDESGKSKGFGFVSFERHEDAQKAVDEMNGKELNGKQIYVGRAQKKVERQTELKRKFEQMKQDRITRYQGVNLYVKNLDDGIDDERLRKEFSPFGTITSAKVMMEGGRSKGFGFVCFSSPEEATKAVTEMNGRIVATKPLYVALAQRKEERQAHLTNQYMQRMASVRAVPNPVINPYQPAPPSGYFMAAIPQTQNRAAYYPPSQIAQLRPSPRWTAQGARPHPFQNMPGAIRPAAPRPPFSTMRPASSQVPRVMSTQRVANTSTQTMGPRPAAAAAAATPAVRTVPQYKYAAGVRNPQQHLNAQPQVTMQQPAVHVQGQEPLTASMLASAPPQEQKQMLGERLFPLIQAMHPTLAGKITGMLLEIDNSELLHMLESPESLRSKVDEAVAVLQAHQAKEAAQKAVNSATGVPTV
Assay [12] addresses T3, Polyadenylate-binding protein 1. Description: PABP1 MLLE–PAM2 interaction inhibitors, dose response, miRNA deadenylation inhibitor project, biochemical, fluorescence polarization, Cy5-PAM2 peptide, secondary (AID 602260). The conditions noted are these: read-out: IC50_Mean. It counts as functional.
Assay [13] has as its target T4, RNA-binding protein pos-1 (Caenorhabditis elegans, UniProt G5EF15).
T4 sequence (G5EF15 whole entry): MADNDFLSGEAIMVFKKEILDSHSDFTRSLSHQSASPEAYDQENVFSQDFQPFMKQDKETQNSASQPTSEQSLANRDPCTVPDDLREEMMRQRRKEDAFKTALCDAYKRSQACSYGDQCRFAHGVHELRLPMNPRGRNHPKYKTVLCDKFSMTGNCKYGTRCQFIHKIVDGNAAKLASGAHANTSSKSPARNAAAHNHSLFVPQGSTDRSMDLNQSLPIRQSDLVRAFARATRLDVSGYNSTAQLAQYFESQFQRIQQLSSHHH
As to the kind of experiment: inhibitors of POS-1/mex-3 RNA binding, dose response, biochemical, fluorescence polarization (AID 1964).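 Note: purified POS-1 fused to maltose binding protein made in E. coli; potency of compounds blocking POS-1 binding to fluorescent RNA.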 Background: Fluorescence polarisation rises when a labelled molecule tumbles more slowly, as on binding a larger partner.

Assay [14] has as its target T5, Zinc finger protein mex-5 (Caenorhabditis elegans, UniProt Q9XUB2).
T5 sequence (Q9XUB2 whole entry): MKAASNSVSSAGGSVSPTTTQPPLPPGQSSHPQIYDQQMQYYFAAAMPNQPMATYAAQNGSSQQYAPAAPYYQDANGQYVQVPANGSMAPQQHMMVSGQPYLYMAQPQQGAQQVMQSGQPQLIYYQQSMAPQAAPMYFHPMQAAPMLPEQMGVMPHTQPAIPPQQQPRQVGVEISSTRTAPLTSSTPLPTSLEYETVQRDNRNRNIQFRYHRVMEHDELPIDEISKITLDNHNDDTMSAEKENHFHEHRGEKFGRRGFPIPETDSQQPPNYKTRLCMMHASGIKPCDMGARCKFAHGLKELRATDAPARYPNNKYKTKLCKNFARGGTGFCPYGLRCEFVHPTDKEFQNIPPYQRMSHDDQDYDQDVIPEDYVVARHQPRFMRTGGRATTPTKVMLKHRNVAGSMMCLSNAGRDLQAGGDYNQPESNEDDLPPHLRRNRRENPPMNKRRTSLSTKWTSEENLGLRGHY
As to the kind of experiment: MEX-5/TCR-2 RNA interaction inhibitors, dose response, biochemical, C. elegans, fluorescence polarization (AID 1960).

Assay [15] is described as follows: growth suppression of PTEN-null colon cells, dose response, cell-based, HCT116 PTEN knockout (AID 1047).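 Note: HCT116 colon tumor cells with PTEN knocked out; cells exposed to compound for 60 hours before readout; potency for loss of cell viability measured by luminescence.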 It counts as functional.
Assay [16] in a line: Luminescence Cell-Based Dose Retest to Confirm Inhibitors of Cancer Stem Cells. [Related pubchem assays (depositor defined):AID2717, AID2721]. It counts as functional. The conditions noted are these: Homo sapiens.
Assay [17] in a line: HepG2 cell cytotoxicity, dose response, cytotoxicity control for Shn3 inhibitor project, CellTiter-Glo, cherry-picked (AID 624134). It counts as functional, cell-based.
Assay [18] is described as follows: Shn3 3'UTR reporter inhibitors, dose response, cell-based, Clone20 osteoblasts, firefly luciferase, cherry-picked (AID 624132).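 Note: firefly luciferase luminescence from reporter carrying the Shn3 3'UTR in osteoblasts.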 It counts as functional.
The nature of assay [19]: control 3'UTR Renilla luciferase suppression, dose response, counter-screen for Shn3 inhibitor project, cell-based, Clone20-Shn3RL, cherry-picked (AID 624133). It counts as functional.
Assay [20] relates to INS1. As to the kind of experiment: beta cell apoptosis inhibitors, cytokine rescue, dose response, luminescence, retest (AID 449756).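 Note: cell death triggered by IL-1 beta plus TNF-alpha plus IFN-gamma mixture; protective hits raise ATP signal compared with cytokine alone wells.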 It counts as functional, cell-based. The following applies: Rattus norvegicus.
The nature of assay [21]: microbe, parasite or virus in culture. It counts as functional. The conditions noted are these: Mycobacterium tuberculosis.
The nature of assay [22]: growth suppression of beta-catenin-knockout colon cells, dose response, cell-based, HCT116, human colon tumor (AID 1045).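 Note: HCT116 colon tumor cells with beta catenin knocked out; cells exposed to compound for 60 hours.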 It counts as functional.
Assay [23] has as its target Induced myeloid leukemia cell differentiation protein Mcl-1 (Homo sapiens, UniProt Q07820). It counts as functional.

Calls of active or inactive are those of the source. Some results are limits rather than exact numbers.

Chain of Induced myeloid leukemia cell differentiation protein Mcl-1 (Q07820 whole entry): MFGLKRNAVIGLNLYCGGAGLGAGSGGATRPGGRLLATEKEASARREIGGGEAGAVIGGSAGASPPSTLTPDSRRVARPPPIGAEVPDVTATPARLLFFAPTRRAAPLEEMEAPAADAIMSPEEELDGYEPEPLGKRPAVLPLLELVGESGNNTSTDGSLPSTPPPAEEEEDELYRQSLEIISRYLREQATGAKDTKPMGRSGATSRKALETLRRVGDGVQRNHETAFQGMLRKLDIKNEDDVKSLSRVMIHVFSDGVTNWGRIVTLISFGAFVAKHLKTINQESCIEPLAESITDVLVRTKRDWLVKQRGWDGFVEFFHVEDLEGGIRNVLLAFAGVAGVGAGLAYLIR

The EC50 is the concentration that produces a half-maximal response. For `O=C(Nc1ccc(S(=O)(=O)N2CCCC2)cc1)c1cccnc1`, in assay [1], the EC50 was > 50 µM (active).
On the same count and under the same terms, under `O=C1c2ccccc2NC(c2cccc([N+](=O)[O-])c2)N1CCc1ccccc1` (stereo unspecified) stands > 50 µM (active).
For the molecule `Cc1ccc(C23CC4CC(CC(CN)(C4)C2)C3)cc1`, the IC50 in [2] is 50 µM (inactive).
By AC50 is commonly meant the concentration giving half of the maximal activity seen. `CC(C)C(=O)N1C2CCC1CC(O)(c1ccc(F)cc1)C2` (stereo unspecified): the EC50 in [3], in [7] and in [8] was > 79.4 µM (not active) in each case. The values for the AC50 in assay [4], in assay [5] and in assay [6] were 22.4 µM (inconclusive), 17.8 µM (inconclusive) and 20 µM (inconclusive), respectively.
In the case of `COc1cc(NC(=O)c2ccccc2)c(OC)cc1NC(=O)Cc1ccc(Br)cc1`, the figures for the EC50 in [9] and in [10] were 29.6 µM (inactive) and > 99 µM (inactive), respectively.
Regarding `CCCN(CC(=O)Nc1ccccc1C)C(=O)COC(=O)CSc1ccc([N+](=O)[O-])cc1`, the IC50 in assay [11] and in assay [12] was > 66 µM (inactive) each time.
Take `Cc1cc(NC(=O)c2ccc3[nH]c(C)c(C)c3c2)ccn1`: in [1], the EC50 was > 50 µM (active).
Turning to `COC(=O)c1cc(NC(S)=Nc2cc(Cl)cc(Cl)c2)cc(C(=O)OC)c1`, the IC50 in [11] and in assay [12] was > 66 µM (inactive) in each case.
For `N#CC(C(=O)NCc1ccccc1)c1nc2ccccc2nc1N1CCCC1` (stereo unspecified), the EC50 in [13] is > 300 µM (inconclusive); in assay [9], 4.64 µM (active); in assay [14], > 300 µM (inconclusive); in [10], > 99 µM (inactive).
As to `Cn1cccc1-c1nc2cc(NC(=O)c3ccccc3)ccc2[nH]1`, the EC50 in [3], in assay [7] and in assay [8] was > 79.4 µM (not active) in each case.
In the case of `CCCCCc1nc2c(c(=O)c3ccccc3n2C)c(=O)n1C1CCCCCC1`, the EC50 in [15] was 7.59 µM (active); in assay [22] it was 6.38 µM (active). The AC50 is 3.56 µM (active) in [16]; 42.3 µM (active) in [17]; 8.21 µM (active) in [18]; 5.56 µM (active) in [19]; 7.76 µM (active) in assay [20]. Moreover, the CC50 in assay [21] is 10.4 µM (active).
With `Cc1[nH]c2ccc(C(=O)Nc3ccncc3)cc2c1C`, the EC50 in assay [1] was > 50 µM (active).
Turning to `CCOC(=O)c1ccc(CC(=O)c2oc3cc(O)ccc3c2C)o1`, the EC50 in [9] was > 99 µM (inactive); in assay [10], 81.2 µM (inactive).
`CC12CC3(C)CC(C)(C1)CC(C(=O)NC(=S)N1CCCC1)(C2)C3`: the IC50 in assay [2] was 50 µM (inactive).
As for `Cc1cc(C)n(-c2nc3nonc3nc2Nc2cccc(C)c2C)n1`, the EC50 in [9] and in [10] was > 99 µM (inactive) each time.
Regarding `CCc1ccc(C2=NN(S(C)(=O)=O)C(c3cccs3)C2)cc1` (stereo unspecified), the EC50 in assay [9] and in assay [10] was > 99 µM (inactive) throughout.
Regarding `Cn1c(=O)c2c(ncn2CCNC2=NCCCCC2)n(C)c1=O`, the EC50 in [3], in assay [7] and in [8] was > 79.4 µM (not active) throughout.
On to `O=C(CN1C(=O)/C(=C2\SC(=S)N(C3CCS(=O)(=O)C3)C2=O)c2ccccc21)Nc1ccc(F)cc1` (stereo unspecified), for which the IC50 in assay [23] is 3.55 µM (active).
Take `CCc1nc2ccc(C(=O)Nc3nnc(C)s3)cc2nc1CC`: the EC50 in assay [3], in assay [7] and in assay [8] was > 79.4 µM (not active) each time.
For the molecule `Cc1ccc(NC(=O)c2ccccc2)s1`, in assay [1], the EC50 is > 50 µM (active).
`c1cncc(CNC2CCCC2)c1`: the EC50 in assay [3], in [7] and in assay [8] was > 79.4 µM (not active) throughout.
On to `Cc1cccc(NC(=O)Cn2cc(C(=O)C3CC3)c3ccccc32)c1C`, for which the AC50 in assay [17] is 66 µM (active); in assay [18], 2.39 µM (active); in assay [19], 3.05 µM (active).
As for `C=CCN1C(=O)/C(=C2/Sc3ccccc3N2CC)SC1=S`, the EC50 in assay [13] was 16.1 µM (active); in [9], > 99 µM (inactive); in [14], 9.69 µM (active); in [10], 56.1 µM (inactive).
With `Cc1ccc(CSc2nc3c(cc2C#N)CCC3)cc1`, the EC50 in assay [3] is given as 42.7 µM (not active); in [7], 47.6 µM (not active); in [8] it was 28.5 µM (not active).
`CCCCOC(=O)Nc1nnc(SCCOc2ccc(C)cc2)s1`: the IC50 in assay [2] was > 64 µM (inactive).
Regarding `Cc1cc(C(F)F)n2nc(C(=O)Nc3sc4c(c3C(N)=O)CCC4)nc2n1`, the IC50 in [23] was 40 µM (active).
Take `O=C(Nc1ccc(F)cc1)C1CCC(CNc2c(N3CCCCC3)c(=O)c2=O)CC1` (stereo unspecified): the EC50 in assay [1] was > 50 µM (active).
On to `O=C(COc1ccc2ccccc2c1)NNC(=O)Cc1ccccc1`, for which the EC50 in assay [3] was 6.07 µM (active); in assay [7] it was 6.57 µM (active); in assay [8] it was 5.17 µM (active).
